Converted amounts (≈) assume the structure as drawn.
How the values were obtained:
Solubility in water = type: physicochemical
[1] = Partition coefficient (log P); type: physicochemical
[2] = Determination of crystallinity by X-ray diffraction (XRD); type: physicochemical; settings: raw powder and after evaporation or drowning-out crystallization
Protocol: XRD measurement conditions and a crystallization method used in this experiment are as follows.
X-ray diffractometer (model name: MiniFlex, Rigaku, Tokyo, Japan/-X-ray generator: graphite monochromatized Cu Kα radiation (λ=1.5418 Å, 2θ range: from 10° to 30° with a step size of 0.02°/−Scanning rate: 1.0°/min)

[3] = In-vitro skin penetration and skin deposition (Franz diffusion cell); type: in vitro ADME; settings: porcine skin, 200 μg OND-1 in 0.2 ml olive oil, 37° C.
Protocol: A percutaneous absorption diffusion test (Franz diffusion cell) was conducted to determine skin penetration of position 3-substituted cyclosporine derivatives by topical skin application.
Specifically, frozen porcine skin was thawed, followed by removal of subcutaneous fat from the dermis, and then the skin was cut into a disc shape with a diameter of 3 cm. Then, the skin was mounted in a skin permeation device (Franz diffusion, receptor volume: 5 ml, diffusion area: 0.785 cm^2) with the stratum corneum facing an upper donor chamber and the dermis facing a lower receptor chamber. […] Hourly, 500 μl of a receiving solution (PBS containing 0.2% Tween 80, pH: 7.4) was sampled, followed by replenishment with an equal volume of fresh one.
The position 3-substituted cyclosporine derivative in the sampled solution was subjected to quantitative analysis by HPLC, followed by calculation of the average value of five replicates to determine the permeation amount of the position 3-substituted cyclosporine derivative.
After 24 hours of use, the skin was removed from the skin permeation device, washed several times with ethanol, dried, and tape-stripped (10 times with scotch tape) to completely remove any residual drug from the surface thereof. The collected skin samples were lysed by incubation with collagenase type I (Gibco®) solution at 37° C. for 24 hours. Thereafter, samples were obtained by a liquid-liquid phase extraction method using methyl tert-butyl ether (MTBE), followed by quantitative analysis of the position 3-substituted cyclosporine derivative by HPLC to calculate the quantity of drug deposited in the skin.
Details of the liquid-liquid extraction method are as follows. A 200 μl to 400 μl aliquot of each of the lysed skin samples was dispensed, followed by addition of 1.2 ml of MTBE. After high-speed shaking for 10 minutes, an organic solvent layer (1 ml) was separated by centrifugation (13,000 rpm, 3 minutes) and then dried under nitrogen flow for 10 minutes. Thereafter, the organic solvent layer was dissolved with a reconstituted solvent (75% acetonitrile) and filtered through a syringe filter to obtain a sample for analysis.

[4] = Determination of crystallinity by differential scanning calorimetry (DSC); type: physicochemical; settings: raw powder, heating curves
Protocol: Differential scanning calorimetry (DSC) was used to identify a difference in crystallinity between cyclosporine A and OND-1 by determining the melting point, glass transition temperature, and recrystallization of the drugs. DSC measurement conditions were as follows.
DSC (model name: DSC Q2000; manufacturer: TA instruments; purging gas: N2 gas (flow: 70 mL/min); heating rate: 5° C./min; isothermal temperature: 10° C./min; cycle number: 1 (from 20° C. to 200° C.)

[5] = Drug remaining at administration site, non-administration site and in blood after topical injection (LC/MS); type: in vivo, mice (C57BL/6)
Protocol: Specifically, the drug level in blood was determined by a liquid-liquid extraction method using methyl tert-butyl ether (MTBE) and LC/MS analysis. Preparation of skin samples at a targeted site and a non-administration site and the liquid-liquid-phase extraction method using MTBE were the same as in Experimental Example 9. […] After initially increasing the proportion of mobile phase B to 20% for 3 minutes to equilibrate the mobile phase, the flow rate of the mobile phase was 0.4 ml/min and the sample injection volume was 3 μl. In addition, as a mass spectrometer, a 4000 Q TRAP Mass Spectrometer system from Applied Bioscience was used.

Compound	solubility (Solubility in water) [µg/mL]	logP [1]	XRD pattern [2]	Penetration rate (μg/cm^2) ([3]; 6 hr)	Penetration rate (μg/cm^2) ([3]; 14 hr)	Penetration rate (μg/cm^2) ([3]; 20 hr)	Penetration rate (μg/cm^2) ([3]; 24 hr)	crystallinity by DSC [4]	Analysis of OND-1 level in systemic blood (μg/ml) ([5]; C57BL/6 mice, topical injection of depot solution containing particles of Example 1-B, individual test subjects 1-5)	Quantity of OND-1 remaining at non-administration site (μg/g) ([5]; C57BL/6 mice, topical injection of depot solution containing particles of Example 1-B, skin, individual test subjects 1-5)	OND-1 detected in the skin at the site of topical administration ([5]; mice, topical injection)	OND-1 detected in the surrounding skin or the systemic blood ([5]; mice, topical injection)
C/C=C/C[C@@H](C)[C@@H](O)[C@H]1C(=O)N[C@@H](CC)C(=O)N(C)[C@H](SC)C(=O)N(C)[C@@H](CC(C)C)C(=O)N[C@@H](C(C)C)C(=O)N(C)[C@@H](CC(C)C)C(=O)N[C@@H](C)C(=O)N[C@H](C)C(=O)N(C)[C@@H](CC(C)C)C(=O)N(C)[C@@H](CC(C)C)C(=O)N(C)[C@@H](C(C)C)C(=O)N1C [OND-1, [D-2-methylthio-Sar^3]cyclosporine A]	10 (≈ 8.01 µM)	3.84	amorphous XRD pattern	1.3	1.1	0.2	1.1	amorphous	Not detected	Not detected	highly detected	rarely detected
Cyclosporine A [CsA, reference compound]			crystalline XRD pattern					crystalline				
